Source: patent US8497278B2, “Imidazo[1,2-a]pyridine compounds” (priority 2008, dated 2013)

How the values were obtained:
[1] = system: central benzodiazepine receptors; assay: Central benzodiazepine receptor binding (test of Speth et al.); settings: 1000 nM of the compound
How it was run: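 Values are percent inhibition of central benzodiazepine receptor binding at 1000 nM compound (initial single-point screen at 1.0E-09, 1.0E-07 and 1.0E-05 M). Speth et al. binding test; nonspecific binding defined with excess unlabelled ligand and subtracted from total.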

[2] = target: T1, α2 subtype containing GABA-A receptors (Homo sapiens, UniProt P18507+P47869); assay: Two-electrode voltage clamp electrophysiology in Xenopus oocytes, potentiation of GABA EC20 response, α2; type: cell-based; settings: 100 nM compound; for activation at 0.1 µM: read-out: Percentage of potentiation alpha2
T1 construct: expressed in transfected cells; host or cells: Xenopus laevis oocytes, cRNA injected
T1 sequence (P47869 29-451): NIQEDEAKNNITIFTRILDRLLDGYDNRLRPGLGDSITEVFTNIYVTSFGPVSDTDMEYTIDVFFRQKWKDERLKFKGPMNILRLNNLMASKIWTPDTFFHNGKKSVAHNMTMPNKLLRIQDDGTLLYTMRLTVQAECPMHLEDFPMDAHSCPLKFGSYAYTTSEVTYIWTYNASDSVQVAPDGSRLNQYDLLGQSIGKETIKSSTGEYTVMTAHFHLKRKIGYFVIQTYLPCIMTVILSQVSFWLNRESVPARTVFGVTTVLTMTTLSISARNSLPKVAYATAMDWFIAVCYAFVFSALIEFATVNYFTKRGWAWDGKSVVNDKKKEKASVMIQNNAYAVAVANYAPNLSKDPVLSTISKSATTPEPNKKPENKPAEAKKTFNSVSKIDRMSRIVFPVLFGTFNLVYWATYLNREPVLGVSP
T1 sequence (P28472 26-473 partner): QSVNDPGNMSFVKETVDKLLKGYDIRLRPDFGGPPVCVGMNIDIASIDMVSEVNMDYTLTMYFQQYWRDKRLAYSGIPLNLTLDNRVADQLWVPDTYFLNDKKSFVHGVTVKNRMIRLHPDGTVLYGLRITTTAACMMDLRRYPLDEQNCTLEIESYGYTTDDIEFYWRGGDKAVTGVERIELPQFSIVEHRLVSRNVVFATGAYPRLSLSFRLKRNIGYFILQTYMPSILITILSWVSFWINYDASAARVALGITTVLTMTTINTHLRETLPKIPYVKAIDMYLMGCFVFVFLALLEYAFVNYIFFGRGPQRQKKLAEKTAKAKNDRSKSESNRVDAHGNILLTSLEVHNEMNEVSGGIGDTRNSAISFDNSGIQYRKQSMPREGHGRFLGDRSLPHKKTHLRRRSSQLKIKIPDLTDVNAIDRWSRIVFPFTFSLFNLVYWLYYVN
T1 sequence (P18507 40-475): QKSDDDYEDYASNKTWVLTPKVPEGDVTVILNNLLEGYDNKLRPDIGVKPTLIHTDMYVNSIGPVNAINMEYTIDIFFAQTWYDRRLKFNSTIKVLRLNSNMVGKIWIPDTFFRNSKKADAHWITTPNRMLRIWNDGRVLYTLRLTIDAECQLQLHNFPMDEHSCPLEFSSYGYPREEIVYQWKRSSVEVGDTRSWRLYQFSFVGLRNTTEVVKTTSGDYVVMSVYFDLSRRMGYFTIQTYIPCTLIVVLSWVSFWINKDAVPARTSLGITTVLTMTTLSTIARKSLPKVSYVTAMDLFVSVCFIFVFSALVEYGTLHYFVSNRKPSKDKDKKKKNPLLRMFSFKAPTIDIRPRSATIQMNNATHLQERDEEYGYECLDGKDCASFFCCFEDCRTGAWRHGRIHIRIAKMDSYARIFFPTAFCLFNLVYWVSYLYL
Experimental: (§1) Electrophysiology protocol: Oocytes were prepared from adult female Xenopus laevis frogs. cRNA encoding human α1, α2, α3, α5, β3 and γ2L GABAA receptor subunits was injected into the cytoplasm of stage 5 or 6 oocytes using the Robocyte Robot (Multi Channel Systems, Reutlingen, Germany). Two-electrode voltage clamp recordings were made in 96-well plates using the Robocyte Robot. Oocytes were impaled using recording heads with two glass electrodes containing 1.5 M potassium acetate and 0.5 M KCl and held at a membrane potential of −80 mV. Oocytes were continually perfused with a ND96 solution (96 mM NaCl, 2 mM KCl, 0.1 mM CaCl2, and 5 mM HEPES, pH 7.5) using a Gilson 222 XL Liquid Handler and Gilson Minipuls 3 Peristaltic Pump (Gilson Medical Electronics, Middleton, Wis., USA). The protocol consisted of three 20-s applications of GABA that gave a 20% of the maximum response (EC20: 60 μM) to allow for headroom to determine a baseline GABA response. To assess the potentiation, oocytes were first exposed to a single 1 μM chlordiazepoxide (CDP) as a potentiation standard. Oocytes with insufficient expression levels (currents below threshold) or insufficient γ2L subunit incorporation (judged by rapid desensitization upon GABA application, or by insufficient potentiation by CDP) were not included in analysis. Following this control application, a given oocyte was exposed to test compounds at 100 nM concentrations. Only one concentration of one compound was tested per oocyte. […] One skilled in the art will recognize that subtypes contribute to the effects of GABA-A modulators. Such that compounds favoring different subtypes can have different therapeutic effects. The magnitude of modulation, for example, partial modulators can influence the effects in vivo. “++” indicates a greater modulation that “+” so that at any given subtype “++” inducates a greater amount of modulation for that subtype. In some embodiments, modulation favoring alpha 1 relative to alpha2 and/or alpha 3 can have sedative hypnotic effects. In other embodiments, compounds with reduced selectivity of alpha 1 can express anxiolytic effects with less sedation. Compounds with selectivity for alpha 5 can have memory/cognition enhancing effects.

[3] = target: T2, α1 subtype containing GABA-A receptors (Homo sapiens, UniProt P14867+P18507); assay: Two-electrode voltage clamp electrophysiology in Xenopus oocytes, potentiation of GABA EC20 response, α1; type: cell-based; settings: 100 nM compound; for activation at 0.1 µM: read-out: Percentage of potentiation alpha1
T2 construct: expressed in transfected cells; host or cells: Xenopus laevis oocytes, cRNA injected
T2 sequence (P14867 28-456): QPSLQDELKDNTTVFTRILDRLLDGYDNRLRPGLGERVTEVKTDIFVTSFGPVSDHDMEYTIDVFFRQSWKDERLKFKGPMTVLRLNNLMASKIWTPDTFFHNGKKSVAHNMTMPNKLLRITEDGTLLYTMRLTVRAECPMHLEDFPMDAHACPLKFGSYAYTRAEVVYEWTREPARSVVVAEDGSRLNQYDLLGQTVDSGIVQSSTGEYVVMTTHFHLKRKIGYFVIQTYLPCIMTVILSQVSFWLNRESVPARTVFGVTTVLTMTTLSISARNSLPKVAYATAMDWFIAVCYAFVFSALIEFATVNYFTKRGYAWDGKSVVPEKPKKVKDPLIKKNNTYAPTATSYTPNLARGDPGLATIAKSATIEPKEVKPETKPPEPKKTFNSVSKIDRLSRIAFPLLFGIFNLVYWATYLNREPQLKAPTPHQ
T2 sequence (P28472 26-473 partner): as the sequence (P28472 26-473 partner) above
T2 sequence (P18507 40-475): as the sequence (P18507 40-475) above
Experimental: as §1

Compound	% Inhibition at 1000 nM for CBZD [1]	Percentage of potentiation alpha2 [2]	Percentage of potentiation alpha1 [3]	activation at 0.1 µM [2] [%]	activation at 0.1 µM [3] [%]
Fc1ccc2nc(-c3ccc(Cl)cc3)c(Cn3nccn3)n2c1 [Compound 56, 3-((2H-1,2,3-triazol-2-yl)methyl)-2-(4-chlorophenyl)-6-fluoroH-imidazo[1,2-a]pyridine]	++ (percentage of inhibition of central BZD site binding is greater than 80% in the presence of 1000 nM of the compound)	++ (percentage of potentiation is greater than or equal to 50% in the presence of 100 nM of the compound)	+ (percentage of potentiation is greater than or equal to 10% but less than 50% in the presence of 100 nM of the compound)	–	–
Fc1ccc2nc(-c3ccc(Cl)cc3)c(Cn3ccnn3)n2c1 [Compound 57, 3-((1H-1,2,3-triazol-1-yl)methyl)-2-(4-chlorophenyl)-6-fluoroH-imidazo[1,2-a]pyridine]	++ (percentage of inhibition of central BZD site binding is greater than 80% in the presence of 1000 nM of the compound)	++ (percentage of potentiation is greater than or equal to 50% in the presence of 100 nM of the compound)	+ (percentage of potentiation is greater than or equal to 10% but less than 50% in the presence of 100 nM of the compound)	–	–
Fc1ccc2nc(-c3ccc(Cl)cc3)c(Cn3nc4ccccc4n3)n2c1 [Compound 59, 2-((2-(4-chlorophenyl)-6-fluoroH-imidazo[1,2-a]pyridin-3-yl)methyl)-2H-benzo[d][1,2,3]triazole]	+ (percentage of inhibition of central BZD site binding is greater than 50% but less than 80% in the presence of 1000 nM of the compound)	0 (percentage of potentiation is between about 10% to about −10%)	0 (percentage of potentiation is between about 10% to about −10%)	–	–
Fc1ccc(-c2nc3ccc(Cl)cn3c2Cn2cncn2)cc1 [Compound 62, 3-((1H-1,2,4-triazol-1-yl)methyl)-6-chloro-2-(4-fluorophenyl)H-imidazo[1,2-a]pyridine]	++ (percentage of inhibition of central BZD site binding is greater than 80% in the presence of 1000 nM of the compound)	0 (percentage of potentiation is between about 10% to about −10%)	+ (percentage of potentiation is greater than or equal to 10% but less than 50% in the presence of 100 nM of the compound)	–	–
Cc1ccc2nc(-c3ccc(F)cc3)c(Cn3cncn3)n2c1 [Compound 63, 3-((1H-1,2,4-triazol-1-yl)methyl)-2-(4-fluorophenyl)-6-methylH-imidazo[1,2-a]pyridine]	++ (percentage of inhibition of central BZD site binding is greater than 80% in the presence of 1000 nM of the compound)	0 (percentage of potentiation is between about 10% to about −10%)	+ (percentage of potentiation is greater than or equal to 10% but less than 50% in the presence of 100 nM of the compound)	–	–
Brc1ccc(-c2nc3ccccn3c2Cn2cncn2)cc1 [Compound 64, 3-((1H-1,2,4-triazol-1-yl)methyl)-2-(4-bromophenyl)H-imidazo[1,2-a]pyridine]	++ (percentage of inhibition of central BZD site binding is greater than 80% in the presence of 1000 nM of the compound)	+ (percentage of potentiation is greater than or equal to 10% but less than 50% in the presence of 100 nM of the compound)	+ (percentage of potentiation is greater than or equal to 10% but less than 50% in the presence of 100 nM of the compound)	–	–
CN(C)CCNC(=O)c1nccn1Cc1c(-c2ccc(Cl)cc2)nc2ccccn12 [Compound 78, 1-((2-(4-chlorophenyl)H-imidazo[1,2-a]pyridin-3-yl)methyl)-N-(2-(dimethylamino)ethyl)-1H-imidazole-2-carboxamide]	++ (percentage of inhibition of central BZD site binding is greater than 80% in the presence of 1000 nM of the compound)	+ (percentage of potentiation is greater than or equal to 10% but less than 50% in the presence of 100 nM of the compound)	+ (percentage of potentiation is greater than or equal to 10% but less than 50% in the presence of 100 nM of the compound)	–	–
CNC(=O)c1ncnn1Cc1c(-c2ccc(Cl)cc2)nc2ccc(Cl)cn12 [Compound 81, 2-[6-Chloro-2-(4-chloro-phenyl)-imidazo[1,2-a]pyridin-3-ylmethyl]-2H-[1,2,4]triazole-3-carboxylic acid methylamide]	++ (percentage of inhibition of central BZD site binding is greater than 80% in the presence of 1000 nM of the compound)	–	–	10 to 50	10 to 50
CNC(=O)c1nccn1Cc1c(-c2ccc(Cl)cc2)nc2cccnn12 [Compound 88, 1-((2-(4-chlorophenyl)imidazo[1,2-b]pyridazin-3-yl)methyl)-N-methyl-1H-imidazole-2-carboxamide]	++ (percentage of inhibition of central BZD site binding is greater than 80% in the presence of 1000 nM of the compound)	–	–	10 to 50	-10 to 10
CNC(=O)c1ncnn1Cc1c(-c2ccc(Cl)cc2)nc2cccnn12 [Compound 90, 1-((2-(4-chlorophenyl)imidazo[1,2-b]pyridazin-3-yl)methyl)-N-methyl-1H-1,2,4-triazole-5-carboxamide]	++ (percentage of inhibition of central BZD site binding is greater than 80% in the presence of 1000 nM of the compound)	–	–	10 to 50	10 to 50
O=C1CCN1Cc1c(-c2ccccc2)nc2ccc(Cl)cn12 [Compound 115, 1-(6-Chloro-2-phenyl-imidazo[1,2-a]pyridin-3-ylmethyl)-azetidin-2-one]	++ (percentage of inhibition of central BZD site binding is greater than 80% in the presence of 1000 nM of the compound)	–	–	10 to 50	10 to 50
O=c1c2ccccc2[nH]n1Cc1c(-c2ccc(Cl)cc2)nc2ccccn12 [Compound 118, 2-((2-(4-chlorophenyl)imidazo[1,2-a]pyridin-3-yl)methyl)-1H-indazol-3(2H)-one]	++ (percentage of inhibition of central BZD site binding is greater than 80% in the presence of 1000 nM of the compound)	–	–	≥ 50	10 to 50
Cc1cccc(=O)n1Cc1c(-c2ccc(Cl)cc2)nc2ccc(F)cn12 [Compound 120, 1-((2-(4-chlorophenyl)-6-fluoroimidazo[1,2-a]pyridin-3-yl)methyl)-6-methylpyridin-2(1H)-one]	++ (percentage of inhibition of central BZD site binding is greater than 80% in the presence of 1000 nM of the compound)	–	–	≥ 50	≥ 50
Cc1cccn(Cc2c(-c3ccc(Cl)cc3)nc3ccc(F)cn23)c1=O [Compound 121, 1-((2-(4-chlorophenyl)-6-fluoroimidazo[1,2-a]pyridin-3-yl)methyl)-3-methylpyridin-2(1H)-one]	++ (percentage of inhibition of central BZD site binding is greater than 80% in the presence of 1000 nM of the compound)	–	–	≥ 50	≥ 50
